Data reported in PubChem BioAssay (NCI).
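Briefly, cells in 96-well plates were exposed to five compound concentrations for 48 h, and endpoints were estimated by linear interpolation. GI50 marks 50% less growth. TGI: concentration producing complete growth inhibition.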

Columns and labels:
Assay in all cases: inhibition of tumour cell growth, NCI panel, 48 h
[1] = system: MDA-N
[2] = system: XF 498 CNS
[3] = system: LXFL 529 NSCLC
[4] = system: KM20L2 colon
[5] = system: RXF-631 renal
[6] = system: DMS 273 small cell lung
[7] = system: HOP-18 NSCLC
[8] = system: M19-MEL melanoma
[9] = system: SNB-78 CNS

Row | Structure (SMILES) | TGI [1] [µM] | TGI [2] [µM] | TGI [3] [µM] | TGI [4] [µM] | TGI [6] [µM] | TGI [7] [µM] | TGI [8] [µM] | TGI [9] [µM] | further results
1 | CC(C)=CCc1c(OC(=O)c2c(C)cc(O)cc2O)cc(CO)c(CO)c1O | 34.8 |  |  |  |  |  |  |  | 
2 | COc1ccc(S(=O)(=O)Nc2ccccc2C(=O)O)cc1 |  | > 100 | > 100 | > 100 | > 100 | > 100 | > 100 |  | TGI [5]: > 100 µM
3 | CCOC(=O)C1N(S(=O)(=O)c2ccc(C)cc2)CCC12c1ccccc1N(C(C)=O)C2c1ccc(OC)c(OC)c1 (configuration not stated) |  | > 100 | > 100 | > 100 | > 100 |  | > 100 | > 100 | 
4 | CCCCCC[N+](C)(C)Cc1ccc(C[N+](C)(C)CCCCCC)cc1 |  |  | 15.4 | 34.4 | 3.73 | 21.8 |  | 5.15 | 
5 | CC(C)=CC(=O)C/C(=N\NC(N)=S)C(=O)Nc1ccc(Cl)cc1 |  |  | > 100 | > 100 | > 100 | > 100 | > 100 | > 100 | 
6 | CCCC(=O)NC1=C(Cl)C(=O)c2ccccc2C1=O | 14.6 |  |  |  |  |  |  |  | 
7 | COC(=O)/C=C1/CCC(C(=O)OC)N1 (configuration not stated) |  | > 100 | > 100 | > 100 | > 100 |  | > 100 | > 100 | 
8 | c1cc(N(CCn2cccn2)CCn2cccn2)cc(N(CCn2cccn2)CCn2cccn2)c1 |  | > 100 | > 100 | > 100 | > 100 |  | > 100 | > 100 | TGI [5]: > 100 µM
9 | COC(=O)N(C(=O)OC)C(C(=O)O)C(C)C (configuration not stated) |  |  | > 100 | > 100 | > 100 | > 100 | > 100 | > 100 | 
10 | Cc1[nH]c2ccccc2c1C(=O)CC1(O)C(=O)Nc2ccccc21 (configuration not stated) |  |  | > 100 | > 100 | > 100 |  | > 100 | > 100 | TGI [5]: > 100 µM
11 | Cc1cc(=O)oc2cc(OC(=O)N(C)C)c(Cl)cc12 | > 100 |  |  |  |  |  |  |  | 
12 | CC(=O)OCC1OC(n2c(-c3ccc(Cl)cc3)ccc(C#N)c2=S)C(OC(C)=O)C(OC(C)=O)C1OC(C)=O (configuration not stated) | > 100 |  |  |  |  |  |  |  | 
13 | C=C(COC(C)=O)CC(OC(C)=O)c1ccccc1 (configuration not stated) |  | > 100 | > 100 | > 100 | > 100 |  | > 100 | > 100 | 
14 | CCC[CH2][Sn]1([CH2]CCC)[O]CC(Cc2ccccc2)[O]1 (configuration not stated) |  | 3.23 | 2.39 | 18.2 | 11 |  | 15.6 | 7.46 | GI50 [9]: 2.61 µM; GI50 [2]: 1.74 µM; GI50 [3]: 1.15 µM; GI50 [4]: 5.33 µM; GI50 [5]: 1.57 µM; TGI [5]: 2.94 µM; GI50 [6]: 2.81 µM; GI50 [8]: 2.83 µM
15 | Cc1nc(Nc2ccc(Cl)cc2)sc1C(=O)NNc1ccc([N+](=O)[O-])cc1[N+](=O)[O-] |  | 32.4 | 30.9 | 35.4 | 39.3 | 27 | 41.7 | > 100 | 
16 | Cc1ccc(NC(=O)C2C(=O)N(c3ccc(C)cc3)C(=O)/C2=N\NC(N)=S)cc1 (configuration not stated) |  | > 100 | > 100 | > 100 | > 100 | > 100 | > 100 | > 100 | 
17 | Oc1[nH]c2ccccc2c1N=Nc1ccccn1 | > 100 |  |  |  |  |  |  |  | 
18 | Cc1cc2c(ccc3c(C)cc(=O)oc32)o1 |  | > 100 | > 100 | > 100 | > 100 | > 100 | > 100 | > 100 | TGI [5]: > 100 µM
19 | CN(C)CC(C)(C)/C(=N\Nc1ccccc1)c1ccccc1 |  |  | 51.4 | 36.7 | > 100 | > 100 | > 100 | > 100 | 
20 | C=C1C(=O)O[C@@H]2C[C@@H](C)[C@@H]3C=CC(=O)[C@@]3(C)[C@@H](OC(=O)CC(=O)O[C@H]3[C@@H]4C(=C)C(=O)O[C@@H]4C[C@@H](C)[C@@H]4C=CC(=O)[C@]43C)[C@H]12 | 10.2 | 0.05 | 0.0343 | 0.237 | 0.122 | 0.365 | 0.0376 | 0.101 | TGI [5]: 0.455 µM
21 | Nc1ccccc1C(=O)CC1OC(=O)c2ccccc21 (configuration not stated) | > 100 |  |  |  |  |  |  |  | 

Row | Structure (SMILES) | TGI [1] [µM] | TGI [2] [µM] | TGI [3] [µM] | TGI [4] [µM] | TGI [6] [µM] | TGI [7] [µM] | TGI [8] [µM] | TGI [9] [µM] | further results
22 | CC(=O)[O][Ga]([Cl])[O]C(C)=O |  | > 100 | > 100 | > 100 | > 100 | > 100 | > 100 | > 100 | GI50 [9]: > 100 µM; GI50 [2]: > 100 µM; GI50 [3]: > 100 µM; GI50 [4]: > 100 µM; GI50 [5]: > 100 µM; TGI [5]: > 100 µM; GI50 [6]: > 100 µM; GI50 [7]: > 100 µM; GI50 [8]: 65.6 µM
23 | COc1cccc(-c2cc(=O)c3cc(OC)ccc3[nH]2)c1 | 0.131 |  |  |  |  |  |  |  | 
24 | Clc1ccc(SC(/C=C/NNC2=NC(c3ccccc3)C(c3ccccc3)=NN2)c2ccccc2)cc1 (configuration not stated) |  | 54.6 |  | 53.7 | > 100 |  | 99.4 | > 100 | TGI [5]: > 100 µM
25 | CN(C)CC(C)(C)C(=O)/C=C/c1ccc(/C=C/C(=O)C(C)(C)CN(C)C)cc1 |  | 2.55 | 2.4 | 2.35 | 2.38 |  | 3.14 |  | TGI [5]: 4.14 µM
26 | O=C1c2ccccc2C(Br)(Br)c2ccccc21 |  | 97.8 | > 31.6 | > 100 | > 31.6 | > 31.6 | > 31.6 | > 100 | 
27 | O=C(CP(=O)(O)O)NC(CC(=O)OCc1ccccc1)C(=O)OCc1ccccc1 (configuration not stated) | > 100 |  |  |  |  |  |  |  | 
28 | COc1ccc(-c2cc(=O)c3ccc(C)nc3[nH]2)cc1 | > 100 |  |  |  |  |  |  |  | GI50 [1]: 55.2 µM
29 | FC(F)(F)c1nc2nc(Cl)c(Cl)nc2n1CCCN1CCOCC1 | > 100 |  |  |  |  |  |  |  | 
30 | C[N-]c1nnnn1C.[Au+].c1ccc([PH+](c2ccccc2)c2ccccc2)cc1 |  |  | 2.83 | 10.3 |  | 5.96 | 14.9 | > 69.1 | GI50 [9]: 5.28 µM; GI50 [3]: 1.37 µM; GI50 [4]: 4.05 µM; GI50 [7]: 2.35 µM; GI50 [8]: 2.9 µM
31 | O=C(CC(c1ccccc1)c1c(O)c2ccccc2oc1=O)c1ccccc1 (configuration not stated) | > 100 |  |  |  |  |  |  |  | 
32 | O=C(O)CCCCCCC[C@H]1S[C@H]1CCCCCCO |  | > 100 |  |  |  | > 100 | > 100 | > 100 | 
33 | CC(C)CC(NC(=O)c1cccc(O)c1O)C(=O)NCc1cc(CNC(=O)C(CC(C)C)NC(=O)c2cccc(O)c2O)cc(CNC(=O)C(CC(C)C)NC(=O)c2cccc(O)c2O)c1 (configuration not stated) |  |  | 13.8 | 21 | 41.9 | > 100 |  | > 100 | 
34 | CC(=O)[CH-]C(C)=O.CC(=O)[CH-]C(C)=O.[CH2-]CCC.[CH2-]CCC.[Sn+4] |  | 1.07 | 0.185 | 2.65 | 2.53 | 1.88 |  |  | GI50 [2]: 0.262 µM; GI50 [3]: 0.0493 µM; GI50 [4]: 1.36 µM; GI50 [6]: 1.19 µM; GI50 [7]: 0.569 µM
35 | [Cl-].[O-]/N=C(\c1ccccc1)c1ccccn1.[O-]/N=C(\c1ccccc1)c1ccccn1.[O-]/N=C(\c1ccccc1)c1ccccn1.[Sm+3] |  |  | > 100 | > 100 | 95.1 |  | 45.7 |  | GI50 [3]: 41.4 µM; GI50 [4]: 40.1 µM; GI50 [6]: 28.7 µM; GI50 [8]: 21.2 µM
36 | COCCCNC(=O)C1C(=O)N(CCCOC)C(=O)/C1=N\N (configuration not stated) |  |  | > 100 | > 100 | > 100 | > 100 | > 100 | > 100 | TGI [5]: > 100 µM
37 | COc1ccc(OC)c(/C(C)=N/NC(N)=S)c1 |  | > 100 | > 100 | > 100 | > 100 | > 100 | > 100 | > 100 | 
38 | C#Cc1cccc(N2C(=O)CCC2=O)c1 | 28.7 | 29 | 15.8 | 59 | 47.4 | 34.3 | 35.3 | 54.6 | TGI [5]: 41.1 µM
39 | CC(C)CCC(=O)c1ccoc1 | > 100 |  |  |  |  |  |  |  | 
40 | C=C(C)C(=O)O[C@H]1C[C@@]23O[C@@H]2CCC(=C[C@H]2OC(=O)C(=C)[C@H]12)COC3O (some centres not stated) | > 100 |  |  |  |  |  |  |  | 
41 | O=c1nc(/C=C/c2ccccc2Cl)cc2n1CCN2CCO |  |  | > 100 |  |  |  | > 100 |  | 
